Some results are limits rather than exact numbers.

Here are results for five molecules from ChEMBL document CHEMBL1139774, “3-Hydroxy-4-methoxyindolomorphinans as delta opioid selective ligands” (Bioorg Med Chem Lett, 2007).

One experiment addresses Mu-type opioid receptor (Rattus norvegicus, UniProt P33535). Nature of the experiment: Displacement of [3H]DAMGO from rat recombinant mu opioid receptor expressed in C6 cells. It counts as cell-based.
Experiment [1] concerns the target Delta-type opioid receptor (Rattus norvegicus, UniProt P33533). Briefly: Displacement of [3H]p-Cl-DPDPE from rat recombinant delta opioid receptor expressed in C6 cells. In kind it is cell-based. For orientation: In a radioligand displacement assay an active substance lowers the binding of a labelled ligand.
The species entered for a further experiment is Rattus norvegicus. Nature of the experiment: Selectivity for rat recombinant delta opioid receptor over rat recombinant mu opioid receptor.
Experiment [2] deals with Kappa-type opioid receptor (Homo sapiens, UniProt P41145). Briefly: Displacement of [3H]U-69593 from human recombinant kappa opioid receptor expressed in CHO cells. In kind it is cell-based.
Chain of Kappa-type opioid receptor (P41145 whole entry): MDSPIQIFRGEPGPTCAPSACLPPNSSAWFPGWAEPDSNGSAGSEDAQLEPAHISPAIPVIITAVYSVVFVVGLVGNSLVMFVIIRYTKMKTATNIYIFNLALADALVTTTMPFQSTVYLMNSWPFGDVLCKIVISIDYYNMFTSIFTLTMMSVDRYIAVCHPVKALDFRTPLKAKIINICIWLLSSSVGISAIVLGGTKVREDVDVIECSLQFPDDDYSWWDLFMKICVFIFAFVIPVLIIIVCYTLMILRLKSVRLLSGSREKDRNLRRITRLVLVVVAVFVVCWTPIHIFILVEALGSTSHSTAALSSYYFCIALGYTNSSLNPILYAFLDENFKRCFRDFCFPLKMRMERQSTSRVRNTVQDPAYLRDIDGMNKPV

Chain of Delta-type opioid receptor (P33533 whole entry): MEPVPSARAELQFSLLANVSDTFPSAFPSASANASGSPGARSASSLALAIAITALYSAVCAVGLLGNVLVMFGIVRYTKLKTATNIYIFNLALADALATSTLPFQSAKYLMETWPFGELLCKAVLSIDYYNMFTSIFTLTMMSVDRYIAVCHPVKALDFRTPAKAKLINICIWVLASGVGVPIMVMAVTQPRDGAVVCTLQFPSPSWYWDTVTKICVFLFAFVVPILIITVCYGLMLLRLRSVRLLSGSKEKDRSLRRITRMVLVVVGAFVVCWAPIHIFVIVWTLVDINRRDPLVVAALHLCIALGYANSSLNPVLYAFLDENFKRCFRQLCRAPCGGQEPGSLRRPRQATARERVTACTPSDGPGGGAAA
Chain of Mu-type opioid receptor (P33535 whole entry): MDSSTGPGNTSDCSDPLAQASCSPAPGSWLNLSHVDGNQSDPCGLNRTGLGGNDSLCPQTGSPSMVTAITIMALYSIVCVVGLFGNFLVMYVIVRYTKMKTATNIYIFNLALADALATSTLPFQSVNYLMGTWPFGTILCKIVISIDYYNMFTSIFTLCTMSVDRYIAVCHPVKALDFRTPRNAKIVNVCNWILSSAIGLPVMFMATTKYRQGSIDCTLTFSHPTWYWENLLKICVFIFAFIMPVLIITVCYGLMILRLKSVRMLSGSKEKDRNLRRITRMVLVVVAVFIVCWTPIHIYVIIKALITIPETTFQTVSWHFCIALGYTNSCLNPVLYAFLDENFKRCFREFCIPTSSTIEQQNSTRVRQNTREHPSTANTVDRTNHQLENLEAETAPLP

Consider `COc1c(O)ccc2c1[C@]13CCN(CC4CC4)[C@H](C2)[C@]1(O)Cc1c([nH]c2ccccc12)C3`, for which the Ki (commonly a dissociation constant, usually derived from enzyme kinetics or from competition with a known ligand) on Mu-type opioid receptor came to 58 nM; in experiment [1], 0.4 nM; in experiment [2], 79 nM. Further, in the experiment listed under Rattus norvegicus, the Ratio Ki was 145.

Turning to `COc1c(O)ccc2c1[C@]13CCN(C)[C@H](C2)[C@]1(O)Cc1c([nH]c2ccccc12)C3`, the Ki came out at 474 nM at Mu-type opioid receptor, 4.5 nM in experiment [1] and 582 nM in experiment [2]. Besides, the Ratio Ki in the experiment listed under Rattus norvegicus was determined as 105.

In the case of `CN1CC[C@]23c4c5ccc(O)c4O[C@H]2c2[nH]c4ccccc4c2C[C@@]3(O)[C@H]1C5` [OXYMORPHINDOLE CHLORIDE], the figures for the inhibitory constant (Ki) (at Mu-type opioid receptor; in experiment [1]; in experiment [2]) were 105 nM, 0.9 nM and 515 nM, respectively. The Ratio Ki in the experiment listed under Rattus norvegicus came to 115.

Take `COc1ccc2c(c1OC)[C@]13CCN(C)[C@H](C2)[C@]1(O)Cc1c([nH]c2ccccc12)C3`: the figures for the Ki (on Mu-type opioid receptor; in experiment [1]; in experiment [2]) were 7590 nM, 41 nM and more than 7000 nM, respectively. Further, the Ratio Ki in the experiment listed under Rattus norvegicus amounted to 185.

As to `COc1ccc2c(c1OC)[C@]13CCN(CC4CC4)[C@H](C2)[C@]1(O)Cc1c([nH]c2ccccc12)C3`, the values for the Ki (at Mu-type opioid receptor; in experiment [1]; in experiment [2]) were 1720 nM, 19 nM and 1440 nM, respectively. Besides, the Ratio Ki in the experiment listed under Rattus norvegicus came out at 90.
